Reference: publication PMC8783508, “A novel D-amino acid peptide with therapeutic potential (ISAD1) inhibits aggregation of neurotoxic disease-relevant mutant Tau and prevents Tau toxicity in vitro” (Alzheimer's Research & Therapy, 2022)
Non-standard residues stand in square brackets, D forms with d. Residues, ends and D or L forms follow the SMILES beside them.

Tests used:
N2a-Tau^RDΔK cells [1] = assay: LDH release with the peptides alone; format: cell-based; settings: 25, 50, 100, 250 μM peptide, 24 h, n = 3
Method: (§1) N2a cells expressing Tau^RDΔK were plated on poly D-lysine-coated 96-well plates with a density of 25,000 cells/well. At 70 to 80% confluence, the cells were treated for 24 h with various concentrations of D-peptides (25, 50, 100, and 250 μM) or Tau^RDΔK (10 μM final concentration) in the presence of ISAD1 and ISAD1rev (100 μM final concentration). The ability of D-peptides to neutralize the toxicity of Tau^RDΔK oligomers/fibrils was investigated by measuring the amount of released LDH (Roche Diagnostics, Mannheim, Germany). Therefore, 50 μL of each well was transferred to a fresh 96-well plate and 50 μL of reagent was added followed by a 30-min incubation period at RT. Finally, 50 μL of stop solution (1 N HCl) was added and absorbance was recorded at 492 nm (TECAN spectrofluorometer, Männedorf, Switzerland). Absorbance values were corrected by background values and the percentage of LDH release was calculated.

[2] = DLS of D-peptides alone with heparin; format: physicochemical; settings: 100 μM D-peptide, 2.5 µM heparin 16000, 24 hours
Method: After the ThS assay (end time point, 24 h), the samples were used for DLS measurements. Twenty microliters of the sample was placed in a quartz batch cuvette (ZEN2112) and the measurement was performed at 25 °C in a Zetasizer Nano S instrument (Malvern Instruments, Herrenberg, Germany). The sample was thermally equilibrated at 25 °C for 2 min. The mean value of the intensities of an individual sample was determined over 3 measurements with 15 runs each. Analysis and averaging of the collected data were performed with the Zetasizer software 7.11 (Malvern Instruments, Herrenberg, Germany) and the result is represented as a volume graph. Tau^RDΔK fibrils (Tau+heparin) formed in the absence of D-peptides was used as a positive control.
100 μM of D-peptides and 2.5 µM of heparin 16000 (H16K) were incubated together for 24 hours and measured by DLS.

Tau^FL-A152T = target: T1, Tau^FL-A152T (Homo sapiens, UniProt P10636, A469T); assay: Fibrillization of Tau^FL-A152T monitored by ThS assay; format: biochemical; settings: Tau:peptide = 1:1; 1:5; 1:10
T1 construct: Tau^FL-A152T Full-length Tau mutant A152T
T1 sequence (P10636 1-441 isoform P10636-8 A152T): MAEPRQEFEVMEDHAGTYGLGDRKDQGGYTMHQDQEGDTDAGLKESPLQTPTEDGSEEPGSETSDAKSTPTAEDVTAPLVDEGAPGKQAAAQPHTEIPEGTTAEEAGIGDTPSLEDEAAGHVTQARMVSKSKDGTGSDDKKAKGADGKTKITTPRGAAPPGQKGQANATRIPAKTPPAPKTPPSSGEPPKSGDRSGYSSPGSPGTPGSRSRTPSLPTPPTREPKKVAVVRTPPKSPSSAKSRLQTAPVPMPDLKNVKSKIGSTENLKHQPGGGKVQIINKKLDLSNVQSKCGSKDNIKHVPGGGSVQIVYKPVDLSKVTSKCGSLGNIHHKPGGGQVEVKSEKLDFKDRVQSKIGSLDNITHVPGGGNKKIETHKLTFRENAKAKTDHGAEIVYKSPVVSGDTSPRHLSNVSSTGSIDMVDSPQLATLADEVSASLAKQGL
Method: For Tau fibrillization inhibition assays, 10 μM Tau mutant protein (Tau^RDΔK, Tau^FLΔK, Tau^FL-A152T, Tau^FL-P301L) was incubated in BES buffer (N,N-bis(2-hydroxyethyl)-2-aminoethanesulfonic acid, pH 7) in the presence of 2.5 μM heparin at 37 °C for 24 h with and without novel D-peptides (ISAD1 and ISAD1rev) at different concentrations (1 nM to 200 μM). Final concentration of 20 μM ThS was used for monitoring fibrillization. The assay was performed with 40-μl sample volume per well in a 384-well microtiter plate (Thermo LabSystems, Dreieich, Germany). The fibrillization of Tau was monitored by ThS and the relative fluorescence intensity of ThS was read out at 440 excitation/521 emission nm in a Tecan micro titer plate reader (Tecan, Männedorf, Switzerland).

N2a-Tau^RDΔK cells [3] = assay: LDH release, externally added Tau^RDΔK aggregates; format: cell-based; settings: 10 μM Tau, 100 μM peptide final, pre-incubated, 24 h on cells, n = 3
Method: as §1

N2a-Tau^RDΔK cells [4] = assay: MTT cytotoxicity of the peptides alone; format: cell-based; settings: 25, 50, 100, 250 μM peptide, 24 h, n = 3
Method: Cell viability was analyzed in accordance with the manufacturer’s protocol (Roche Diagnostics, Mannheim, Germany; cell proliferation kit II (MTT)). This assay is based on the cleavage of the yellow tetrazolium salt MTT into purple formazan dye by metabolic active cells. The color changes only in viable cells and can be directly quantified using a scanning multiwell spectrophotometer. In all experiments, the cells were grown as described previously. The cells (25,000 cells/well or 80% confluence) were plated on poly D-lysine-coated 96-well plates (Greiner Bio-One GmbH, Frickenhausen, Germany) for stronger attachment from overnight to 24 h at 37 °C. Fibrillized Tau^RDΔK was generated by incubating 200 μM Tau^RDΔK in BES buffer at 37 °C for 24 h in the presence of 2 mM D-peptides (Tau^RDΔK:peptide = 1:10). Successful fibrillization was verified using ThS (5 μM Tau^RDΔK, 10 μM ThS) measurement. The aggregated Tau^RDΔK (10 μM final concentration), Tau^RDΔK (10 μM) + peptide (100 μM) samples (ISAD1 and ISAD1rev), buffer only (negative control, set to 100% cell viability), and TritonX-100 (2%, cytotoxic agent, positive control) were incubated on N2a-Tau^RDΔK cells (100 μl solution) for another 24 h. The cell viability was measured in accordance with the manufacturer’s protocol.
A MTT-based cytotoxicity assay in the presence of ISAD1 and ISAD1rev peptides. […]

N2a-Tau^RDΔK cells [5] = assay: MTT, intracellularly expressed Tau^RDΔK (Dox induced); format: cell-based; settings: 1 μg/ml doxycycline, 72 h, n = 2
Method: After the N2a-Tau^RDΔK cells reached the desired confluence (25,000 cells/well or 80%), intracellular Tau^RDΔK expression was induced by the addition of 1 μg/ml Dox. The cells were plated on poly D-lysine-coated 96-well plates (Greiner Bio-One GmbH, Frickenhausen, Germany) and treated with ISAD1 and ISAD1rev in a concentration range of 25 to 250 μM. TritonX-100 (2%) was used as a positive control. The incubation and Tau^RDΔK expression time was 72 h. Following incubation, cell viability was studied by measuring MTT and LDH release in accordance with the manufacturer’s protocol.

[6] = system: N2a cells expressing Tau^RDΔK; assay: Uptake of FAM-labeled D-peptides by confocal microscopy; format: cell-based; settings: 25 μM FAM-labeled peptide, 24 h, fixed cells
Method: In order to become potentially suitable for therapeutic development, the D-peptides should be internalized by neurons. To test this, 25 μM FAM-labeled ISAD1 or its inversed form was added to cells that express pro-aggregant mutant Tau^RDΔK for 24 h followed by cell fixation.
Fig. 7 Uptake of fluorescence-labeled D-peptides analyzed by confocal microscopy. 25 μM FAM-labeled peptides (ISAD1 and ISArev) were incubated with N2a cells expressing Tau^RDΔK for 24 h. The uptake of D-peptides was analyzed by confocal microscopy. As shown in the representative images, the peptides are mainly localized in the cytoplasm (A1, B1 Draq5 shown as red; A2 ISAD1-FAM, B2 ISAD1rev-FAM; A3, B3 merged images)

SMILES: CC(C)C[C@@H](NC(=O)[C@@H](CO)NC(=O)[C@@H](CC(C)C)NC(=O)[C@H](NC(=O)[C@@H](CC(=O)O)NC(=O)[C@@H](C)NC(=O)[C@@H](C)NC(=O)[C@H](N)CO)[C@H](C)O)C(=O)N[C@H](CCCCN)C(=O)N[C@H](Cc1ccccc1)C(=O)N[C@@H](C(=O)N[C@H](CO)C(=O)O)C(C)C [ISAD1rev] (H-[dS][dA][dA][dD][dT][dL][dS][dL][dK][dF][dV][dS]-OH; N-terminus and C-terminus assumed)
- Cytotoxicity, LDH release (N2a-Tau^RDΔK cells [1]): do not induce toxic effects
- Particle size of peptide alone in the presence of heparin (DLS) [2]: < 2 nm
- Inhibition of Tau^FL-A152T fibrillization, in words (Tau^FL-A152T): weak inhibitory effects
- Effect on toxicity of Tau aggregates, LDH release (N2a-Tau^RDΔK cells [3]): Low LDH release levels
- Cytotoxicity, MTT (N2a-Tau^RDΔK cells [4]): do not induce toxic effects
- Cell viability at 50 μM peptide (N2a-Tau^RDΔK cells [5]): no increase in cell viability
- Intracellular localisation [6]: accumulated in the cytosol but were excluded from the nucleus
- Uptake by cells [6]: almost all cells took up the D-peptides
